These results are taken from patent publication US10245249B2, “Pharmaceutical compositions comprising nitroxyl donors” (Cardioxyl Pharmaceuticals, Inc., priority 2013, dated 2019).

For one data set, the system named is dogs. Kind of data set: 14-day continuous infusion tolerance studies of CXL-1020 in dogs. Format: in vivo. The method, then: During in vivo trials of the nitroxyl donor CXL-1020 (N-hydroxy-2-methanesulfonylbenzene-1-sulfonamide), a 14-day study was conducted to evaluate tolerance in dogs treated with continuous infusions of CXL-1020 at dose rates of up to 90 μg/kg/min.
To further investigate this undesirable side-effect, a follow-up 14-day study in dogs was initiated.

For data set [1], the system named is patients with systolic heart failure. The following applies: cited from earlier work.
Data set [2] is described as follows: Stability of dosing solutions of compound of formula (2) stored at 25° C. (Example 11). Format: physicochemical. As to the method:
A series of dosing solutions of the compound of formula (2) for IV administration was assessed. The selected concentrate of compound of formula (2), prepared at 30 mg/mL in a vehicle of 30% CAPTISOL® at pH 4.0, was evaluated at low, mid, and high concentrations (0.1, 1 and 5 mg/mL, respectively) upon dilution into various dosing solutions. For dilution of the compound of formula (2) to 0.1 and 1 mg/mL, three dosing solutions were evaluated; 1) D5W, 2) D5W with 5 mM K-phosphate (pH=6), and 3) D5W with 20 mM K-phosphate (pH=6). To maintain iso-osmolality for dilutions of the compound of formula (2) to 5 mg/mL, the concentration of dextrose in the dosing solutions was reduced to 2.5% (w/v). Thus, the dosing solutions evaluated were; (1) D2.5W, (2) D2.5W with 5 mM K-phosphate (pH=6), and (3) D2.5W with 20 mM K-phosphate (pH=6).
The potential dosing solutions were assessed for visual appearance, pH, osmolality, and concentration and purity by HPLC (XBridge Phenyl Column (Waters); UV absorbance detector at 272 nm; mobile phase a step gradient of aqueous acetonitrile containing 0.1% (v/v) formic acid) after approximately 0, 16, 24, and 48 hours of storage at 25° C. […] In addition, the known degradant, the compound of formula (101), formed by release of the active HNO group, was observed after 16 hours at 25° C. in small quantities by HPLC in the dosing solutions containing phosphate buffer. […]

`CS(=O)(=O)c1ccccc1S(=O)(=O)NO` [CXL-1020, N-hydroxy-2-methanesulfonylbenzene-1-sulfonamide, reference compound] registered a dose rate tolerated with dogs (14-day continuous infusion, dogs) of 60 µg/kg/min. Moreover, the “side effects in follow-up 14-day study” value in the data set with dogs (dog, in vivo) was “significant swelling and inflammation in the dogs' hind limbs”. Moreover, the “hemodynamic effects in patients with systolic heart failure” value in data set [1] (intravenous aqueous solution at pH=4) was “reduced both left and right heart filling pressures and systemic vascular resistance, while increasing cardiac and stroke volume index”. In addition, the “side effects at threshold doses needed to produce hemodynamic effects” value in data set [1] (intravenous) is “unacceptable levels of inflammatory irritation at and distal to the intravenous insertion site”.
In the case of `CS(=O)(=O)c1cccc(S(=O)(=O)NO)c1` [Compound 2, N-Hydroxy-3-methanesulfonylbenzene-1-sulfonamide], the osmolality result in data set [2] (1 mg/mL in D5W with 20 mM phosphate) is on record as “approximately 350 mOsm/kg”. Further, in data set [2] (5 mg/mL in D2.5W with 5 mM phosphate (pH 6.0), after 48 hours at 25° C.), the visual appearance result was “clear, light yellow”.
